Data: PMC3698108, “Structural and bioactive studies of terpenes and cyclopeptides from the Genus Rubia” (Chemistry Central Journal, 2013)
“Also recorded” adds a separate entry of the source. Blank lines part the entries; values can stand above or below the molecule they belong to.

Columns and labels:
[1] = test system: Vancomycin-Resistant Enterococci; conditions: cited from earlier work; for antimicrobial activities: weaker than clinical antimicrobial drugs
four cell lines = conditions: cited from earlier work
renal aldose reductase = conditions: cited from earlier work
TRAIL-induced apoptosis = conditions: cited from earlier work
STAT3 = conditions: cited from earlier work
[2] = test system: human immunodeficiency virus (HIV-1) protease; set-up: method as in PMID 8759159; conditions: cited from earlier work
glyoxalase I = conditions: cited from earlier work
HT-29, MCF-7 and HepG2 = test system: HT-29, MCF-7 and HepG2; set-up: method as in PMID 18239313; conditions: cited from earlier work
[3] = set-up: method as in PMID 20188082; conditions: mice; cited from earlier work
DNA topoisomerase II = test system: DNA topoisomerase II; set-up: method as in PMID 18239313; conditions: cited from earlier work
[4] = test system: A549, SK-OV-3, SK-MEL-2, MES-SA and HCT-15; set-up: method as in PMID 15089031; conditions: cited from earlier work
HT-29 = conditions: cited from earlier work
[5] = test system: NO production from LPS-activated macrophages; set-up: method as in PMID 12762798; conditions: cited from earlier work
platelet aggregation = test system: platelet aggregation; set-up: method as in PMID 12350148; conditions: cited from earlier work
A549, Hela and SMMC-7721 = test system: A549, Hela and SMMC-7721; set-up: method as in PMID 21973054; conditions: data not very satisfactory; cited from earlier work
P-388 = conditions: cited from earlier work; for cytotoxicity against P-388 IC50: moderate cytotoxicity
[6] = test system: RAW 264.7 murine macrophages; conditions: cited from earlier work
P388 = conditions: cited from earlier work
HL-60 cells = test system: HL-60 cells; set-up: method as in doi:10.1016/j.phytol.2012.02.014; conditions: much weaker than RA-XXIV and RA-VII; cited from earlier work
iNOS = test system: iNOS; set-up: method as in PMID 12808242; conditions: cited from earlier work
11 cancer cell lines = conditions: SRB assay; cited from earlier work

melting point: 253 to 254 °C
Molecule: COC(=O)CC[C@@H]1NC(=O)[C@@H](C)NC(=O)[C@@H]2Cc3ccc(O)c(c3)Oc3ccc(cc3)C[C@@H](C(=O)N2C)N(C)C(=O)[C@H](C)NC(=O)[C@H](Cc2ccc(OC)cc2)N(C)C1=O

Molecule: C[C@H]1[C@H](C)CC[C@]2(C(=O)O)CC[C@]3(C)C(=CC[C@@H]4[C@@]5(C)CC[C@H](O)C(C)(C)[C@@H]5CC[C@]43C)[C@H]12 [Compound 11, Ursolic acid]
toxicity [1]: low toxicity | antimicrobial activities [1]: fairly high antimicrobial activities | apoptotic effects (four cell lines): markedly apoptotic effects | cell adhesion (four cell lines): suppress cell adhesion | production of VEGF and ICAM-1 (four cell lines): reduce the production of VEGF and ICAM-1 | renal aldose reductase activity (renal aldose reductase): markedly suppressed | TRAIL-induced apoptosis (TRAIL-induced apoptosis): potentiated TRAIL-induced apoptosis | STAT3 activation (STAT3): novel blocker of STAT3 activation | inhibition on HIV-1 protease [2]: possess inhibition | activity of glyoxalase I (glyoxalase I): enhanced the activity

Molecule: CC1(C)CC[C@]2(C(=O)O)CC[C@]3(C)C(=CC[C@@H]4[C@@]5(C)CC[C@H](O)C(C)(C)[C@@H]5CC[C@]43C)[C@@H]2C1 [Compound 12, Oleanolic acid]
cytotoxicity against HT-29, MCF-7 and HepG2 (HT-29, MCF-7 and HepG2): weak cytotoxicity | toxicity [1]: low toxicity | antimicrobial activities [1]: fairly high antimicrobial activities | glucose tolerance [3]: improve glucose tolerance | visceral adiposity [3]: ameliorate visceral adiposity | apoptotic effects (four cell lines): markedly apoptotic effects | cell adhesion (four cell lines): suppress cell adhesion | production of VEGF and ICAM-1 (four cell lines): reduce the production of VEGF and ICAM-1 | renal aldose reductase activity (renal aldose reductase): markedly suppressed | inhibitory activity against DNA topoisomerase II compared with DNA topoisomerase I (DNA topoisomerase II): selective inhibitory activity | activity of glyoxalase I (glyoxalase I): enhanced the activity

Molecule: CC(=O)OC1CCC2(C)C(CCC3(C)C2CC=C2C4CC(C)(C)CCC4(C=O)CCC23C)C1(C)C (stereo not drawn) [Compound 15, Oleanolic aldehyde acetate]
bioactivities against A549, SK-OV-3, SK-MEL-2, MES-SA and HCT-15 [4]: potent bioactivities

Molecule: CC(C)[C@@H]1C[C@@H](O)[C@H]2[C@@]1(CO)CC[C@@]1(C)[C@H]3C(=CC[C@]21C)[C@@]1(C)CC[C@H](O)C(C)(C)[C@@H]1C[C@@H]3O [Compound 16, Rubiarbonol A]
cytotoxicity against HT-29 (HT-29): relatively strong cytotoxicity | inhibition of NO production [5]: inhibit NO production; also recorded: inhibitory activities on NO production | melting point: 260 to 263 °C | effect on platelet aggregation at the high doses (platelet aggregation): promoted platelet aggregation | effect on platelet aggregation at the lower concentrations (platelet aggregation): possessed antiplatelet aggregation activity

Molecule: CC(C)[C@@H]1C[C@@H](O)[C@H]2[C@@]1(C)CC[C@@]1(C)[C@H]3C(=CC[C@]21C)[C@@]1(C)CC[C@H](O)C(C)(C)[C@@H]1C[C@@H]3O [Compound 17, Rubiarbonol B]
inhibition against arachidonic acid-induced and collagen-induced platelet aggregation (platelet aggregation; at 150 μM, among compounds 16, 17 and 25): most potent inhibition

Molecule: CC(C)[C@@H]1C[C@@H](O)[C@H]2[C@@]1(CO)CC[C@@]1(C)[C@H]3C(=CC[C@]21C)[C@@]1(C)C[C@@H](O)[C@H](O)C(C)(C)[C@@H]1C[C@@H]3O [Compound 21, Rubiarbonol F]
inhibition of NO production [5]: inhibit NO production; also recorded: inhibitory activities on NO production

Molecule: CC(=O)OC[C@@]12CC[C@@]3(C)[C@H]4C(=CC[C@]3(C)[C@H]1[C@H](O)C[C@H]2C(C)C)[C@@]1(C)CCC(=O)C(C)(C)[C@@H]1C[C@@H]4O [Compound 27, Rubiarbonone C]
inhibition of NO production [5]: inhibit NO production; also recorded: inhibitory activities on NO production | melting point: 98 to 100 °C

Molecule: CC(=O)OC[C@@]12CC[C@@]3(C)[C@H]4C(=CC[C@]3(C)[C@H]1[C@H](O)C[C@H]2C(C)C)[C@@]1(C)CC[C@H](O)C(C)(C)[C@@H]1C[C@@H]4O [Compound 42, Rubianol-c]
inhibition of NO production [5]: inhibit NO production; also recorded: inhibitory activities on NO production

Molecule: CC(=O)OC[C@@]12CC[C@@]3(C)[C@H]4C(=CC[C@]3(C)[C@H]1[C@H](O)C[C@H]2C(C)C)[C@@]1(C)C[C@@H](O)[C@H](O)C(C)(C)[C@@H]1C[C@@H]4O [Compound 43, Rubianol-d]
efficacy of NO production inhibition compared with L-NMMA [5]: equivalent to L-NMMA | inhibition of NO production [5]: exhibited the inhibition

Molecule: CC(C)[C@@H]1C[C@@H](O)[C@H]2[C@@]1(C)CC[C@@]1(C)C3=CC[C@H]4C(C)(C)[C@@H](O)CC[C@]4(C)C3=CC[C@]21C [Compound 54, Rubiyunnanol A]
inhibition on A549, Hela and SMMC-7721 (A549, Hela and SMMC-7721): had inhibition

Molecule: CC(C)[C@@H]1CC=C2[C@@]1(C)CC[C@@]1(C)[C@H]3C(=CC[C@]21C)[C@@]1(C)CC[C@H](O)C(C)(C)[C@@H]1C[C@@H]3O [Compound 55, Rubiyunnanol B]
melting point: 247 to 248 °C | inhibition on A549, Hela and SMMC-7721 (A549, Hela and SMMC-7721): had inhibition

Molecule: CC(=O)O[C@@H]1C[C@@H](C(C)C)[C@]2(CO)CC[C@@]3(C)[C@H]4C(=CC[C@]3(C)[C@@H]12)[C@@]1(C)C=CC(=O)C(C)(C)[C@@H]1C[C@@H]4O [Compound 58, Rubiarbonone E 19-acetate]
inhibition on A549, Hela and SMMC-7721 (A549, Hela and SMMC-7721): had inhibition

Molecule: CC(=O)OC[C@@]12CC[C@@]3(C)[C@H]4C(=CC[C@]3(C)[C@H]1[C@H](O)C[C@H]2C(C)C)[C@@]1(C)CC[C@H](O[C@@H]2O[C@H](CO[C@@H]3O[C@H](CO)[C@@H](O)[C@H](O)[C@H]3O)[C@@H](O)[C@H](O)[C@H]2O)C(C)(C)[C@@H]1C[C@@H]4O [Compound 62, Rubiarboside G 28-acetate]
inhibition on A549, Hela and SMMC-7721 (A549, Hela and SMMC-7721): had inhibition

Molecule: COc1ccc(C[C@H]2C(=O)N[C@@H](C)C(=O)N(C)[C@H]3Cc4ccc(cc4)Oc4cc(ccc4OC)C[C@@H](C(=O)N[C@H](C)C(=O)N[C@@H](CCC(N)=O)C(=O)N2C)N(C)C3=O)cc1 [Compound 90, RA- XXIII]
cytotoxicity against P-388 IC50 (P-388; P-388): 160 µg/mL

Molecule: COc1ccc(C[C@H]2C(=O)N[C@@H](C)C(=O)N(C)[C@H]3Cc4ccc(cc4)Oc4cc(ccc4O)C[C@@H](C(=O)N[C@H](C)C(=O)N[C@@H](CCC(N)=O)C(=O)N2C)N(C)C3=O)cc1 [Compound 91, RA- XXIV]
activity against NO production in LPS [6]: exhibited activity | cytotoxicity against P-388 IC50 (P-388; P-388): 480 µg/mL

Molecule: COc1ccc(C[C@H]2C(=O)N[C@@H](C)C(=O)N(C)[C@H]3Cc4ccc(cc4)Oc4cc(ccc4OC)C[C@@H](C(=O)N[C@H](C)C(=O)N[C@@H](C)C(=O)N2C)N(C)C3=O)cc1 [Compound 104, RA-700]
activities against P388 (P388): medium activities

Molecule: O-seco-RA-XXIV [Compound 109]
cytotoxic effects on HL-60 cells (HL-60 cells): exhibited cytotoxic effects

Molecule: RA- XVIII [Compound 85]
cytotoxicity against P-388 (P-388; P-388): 0.012 µg/mL

Molecule: RA- XXII [Compound 89]
relative cytotoxicity against P388 (P-388; RA-VII (74) as reference): less cytotoxic than 88

Molecule: RA-I [Compound 66]
activity against NO production in LPS [6]: exhibited activity

Molecule: RA-IX [Compound 76]
antitumour effect on P388 (P388): almost no antitumour activities

Molecule: RA-X [Compound 77]
antitumour effect on P388 (P388): strong antitumour effect

Molecule: RA-XII [Compound 79]
activity against NO production in LPS [6]: exhibited activity | antitumor activity against P388 (P388): potent antitumor activity | effects on iNOS induction (iNOS): potent effects

Molecule: RC-18 [Compound 105]
activities against P388 (P388): medium activities

Molecule: RY-I [Compound 100]
activity against NO production in LPS [6]: exhibited activity

Molecule: Rubianol-e [Compound 44]
efficacy of NO production inhibition compared with L-NMMA [5]: equivalent to L-NMMA | inhibition of NO production [5]: exhibited the inhibition

Molecule: Rubiarbonone A [Compound 25]
effect on platelet aggregation at the high doses (platelet aggregation): promoted platelet aggregation | effect on platelet aggregation at the lower concentrations (platelet aggregation): possessed antiplatelet aggregation activity

Molecule: Rubiyunnanin B [Compound 93]
cytotoxicities against the 11 cancer cell lines (11 cancer cell lines): moderate cytotoxicities
